Measurements: patent publication US10336696B2, “Bicarbazole compound, photo-curable composition, cured product thereof, curable composition for plastic lens, and plastic lens” (DIC Corporation, priority 2014, dated 2019)

What was measured:
[1] = Refractive index of compounds (NMP solutions, extrapolated); type: physicochemical; conditions: compound diluted with NMP, three concentrations, Abbe refractometer, 589 nm (D line)
Experimental: The refractive index of each of the compounds was determined as follows. A compound was diluted with N-methylpyrrolidone (NMP) to prepare three samples having different concentrations. Liquid refractive indices of the respective solutions were measured, and the measured data was extrapolated to calculate the refractive index.
Measuring device: Abbe refractometer NRA-2T, manufactured by Atago Co., Ltd.
Measurement wavelength: 589 nm (D line)

[2] = Solubility in o-phenylphenoxyethyl acrylate; type: physicochemical; parameters: key: A: Soluble; B: Insoluble; conditions: for Solubility, 10 mass %: compound concentration 10% by mass; for Solubility, 50 mass %: compound concentration 50% by mass
Experimental: The solubility was evaluated on the basis of whether a compound was soluble or insoluble in o-phenylphenoxyethyl acrylate. The evaluation was performed at two levels at which the compound concentration was 10% by mass and 50% by mass.

Compound	Liquid refractive index [1]	Solubility, 10 mass % [2]	Solubility, 50 mass % [2]
C=Cn1c2ccccc2c2ccccc21 [Comparative Example 1, 9-vinylcarbazole, reference compound]	1.674	A	B
c1ccc2c(c1)[nH]c1ccc(-c3ccc4[nH]c5ccccc5c4c3)cc12 [Comparative Example 2, 3,3′-bicarbazole, reference compound]	1.765	B	B
c1ccc2c(c1)[nH]c1ccc(-c3cccc4c3[nH]c3ccccc34)cc12 [Synthesis Example 1, 1,3′-bicarbazole]	1.76	A	B

The next lines start with the values.

Liquid refractive index [1]	Solubility, 10 mass % [2]	Solubility, 50 mass % [2]	Compound
1.723	A	B	C=CC(=O)n1c2ccccc2c2cc(-c3cccc4c5ccccc5n(C(=O)C=C)c34)ccc21 [Example 1, 9,9′-diacryloyl-1,3′-bicarbazole]
1.735	A	A	C=Cn1c2ccccc2c2cc(-c3cccc4c5ccccc5n(C=C)c34)ccc21 [Example 2, 9,9′-divinyl-1,3′-bicarbazole]
1.664	A	A	C=CC(=O)OCCn1c2ccccc2c2cc(-c3cccc4c5ccccc5n(CCOC(=O)C=C)c34)ccc21 [Example 3, 9,9′-bis(acryloyloxyethyl)-1,3′-bicarbazole]
